Results from PubChem BioAssay (NCI).
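These data come from cells grown in 96-well plates and exposed to compound for 48 hours at five concentrations. TGI: concentration producing complete growth inhibition.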

How the values were obtained:
Test in all cases: growth of human tumour cells (NCI), 48 h
OVCAR-5 ovarian = test system: OVCAR-5 ovarian
DU-145 prostate = test system: DU-145 prostate
SF-539 CNS = test system: SF-539 CNS
K-562 leukemia = test system: K-562 leukemia
U251 CNS = test system: U251 CNS
OVCAR-8 ovarian = test system: OVCAR-8 ovarian
SK-MEL-2 melanoma = test system: SK-MEL-2 melanoma
SR leukemia = test system: SR leukemia
PC-3 prostate = test system: PC-3 prostate
MDA-N = test system: MDA-N
CCRF-CEM leukemia = test system: CCRF-CEM leukemia
HS 578T breast = test system: HS 578T breast
SK-OV-3 ovarian = test system: SK-OV-3 ovarian
MCF7 breast = test system: MCF7 breast
UACC-257 melanoma = test system: UACC-257 melanoma
UO-31 renal = test system: UO-31 renal
SF-295 CNS = test system: SF-295 CNS
RPMI-8226 leukemia = test system: RPMI-8226 leukemia
KM12 colon = test system: KM12 colon
NCI-H226 lung = test system: NCI-H226 lung
CAKI-1 renal = test system: CAKI-1 renal
T-47D breast = test system: T-47D breast
HOP-62 NSCLC = test system: HOP-62 NSCLC
COLO 205 colon = test system: COLO 205 colon
SN12C renal = test system: SN12C renal
NCI-H23 lung = test system: NCI-H23 lung
MDA-MB-435 = test system: MDA-MB-435
SK-MEL-5 melanoma = test system: SK-MEL-5 melanoma
SF-268 CNS = test system: SF-268 CNS
A498 renal = test system: A498 renal
HT29 colon = test system: HT29 colon
NCI-H522 lung = test system: NCI-H522 lung
NCI/ADR-RES ovarian = test system: NCI/ADR-RES ovarian
SNB-19 CNS = test system: SNB-19 CNS
MALME-3M melanoma = test system: MALME-3M melanoma
NCI-H460 lung = test system: NCI-H460 lung
HL-60(TB) leukemia = test system: HL-60(TB) leukemia
SK-MEL-28 melanoma = test system: SK-MEL-28 melanoma
BT-549 breast = test system: BT-549 breast
786-0 renal = test system: 786-0 renal
ACHN renal = test system: ACHN renal
HOP-92 NSCLC = test system: HOP-92 NSCLC
OVCAR-4 ovarian = test system: OVCAR-4 ovarian
TK-10 renal = test system: TK-10 renal
OVCAR-3 ovarian = test system: OVCAR-3 ovarian
HCT-116 colon = test system: HCT-116 colon
UACC-62 melanoma = test system: UACC-62 melanoma
HCT-15 colon = test system: HCT-15 colon
LOX IMVI melanoma = test system: LOX IMVI melanoma
RXF 393 renal = test system: RXF 393 renal
MDA-MB-231 breast = test system: MDA-MB-231 breast
EKVX NSCLC = test system: EKVX NSCLC
IGROV1 ovarian = test system: IGROV1 ovarian
A549 NSCLC = test system: A549 NSCLC
HCC-2998 colon = test system: HCC-2998 colon
MOLT-4 leukemia = test system: MOLT-4 leukemia
SW-620 colon = test system: SW-620 colon
SNB-75 CNS = test system: SNB-75 CNS
M14 melanoma = test system: M14 melanoma

SMILES: O=C1C=CC(=O)N1n1c(Cc2ccccc2)n[nH]c1=O
- TGI (OVCAR-5 ovarian): > 100 µM
- TGI (DU-145 prostate): > 100 µM
- TGI (SF-539 CNS): > 100 µM
- TGI (K-562 leukemia): > 100 µM
- TGI (U251 CNS): > 100 µM
- TGI (OVCAR-8 ovarian): > 100 µM
- TGI (SK-MEL-2 melanoma): > 100 µM
- TGI (SR leukemia): > 100 µM
- TGI (PC-3 prostate): > 100 µM
- TGI (MDA-N): > 100 µM
- TGI (CCRF-CEM leukemia): > 100 µM
- TGI (HS 578T breast): > 100 µM
- TGI (SK-OV-3 ovarian): > 100 µM
- TGI (MCF7 breast): > 100 µM
- TGI (UACC-257 melanoma): > 100 µM
- TGI (UO-31 renal): > 100 µM
- TGI (SF-295 CNS): > 100 µM
- TGI (RPMI-8226 leukemia): > 100 µM
- TGI (KM12 colon): > 100 µM
- TGI (NCI-H226 lung): > 100 µM
- TGI (CAKI-1 renal): > 100 µM
- TGI (T-47D breast): > 100 µM
- TGI (HOP-62 NSCLC): > 100 µM
- TGI (COLO 205 colon): > 100 µM
- TGI (SN12C renal): > 100 µM
- TGI (NCI-H23 lung): > 100 µM
- TGI (MDA-MB-435): > 100 µM
- TGI (SK-MEL-5 melanoma): > 100 µM
- TGI (SF-268 CNS): > 100 µM
- TGI (A498 renal): > 100 µM
- TGI (HT29 colon): > 100 µM
- TGI (NCI-H522 lung): > 100 µM
- TGI (NCI/ADR-RES ovarian): > 100 µM
- TGI (SNB-19 CNS): > 100 µM
- TGI (MALME-3M melanoma): > 100 µM
- TGI (NCI-H460 lung): > 100 µM
- TGI (HL-60(TB) leukemia): > 100 µM
- TGI (SK-MEL-28 melanoma): > 100 µM
- TGI (BT-549 breast): > 100 µM
- TGI (786-0 renal): > 100 µM
- TGI (ACHN renal): > 100 µM
- TGI (HOP-92 NSCLC): > 100 µM
- TGI (OVCAR-4 ovarian): > 100 µM
- TGI (TK-10 renal): > 100 µM
- TGI (OVCAR-3 ovarian): > 100 µM
- TGI (HCT-116 colon): > 100 µM
- TGI (UACC-62 melanoma): > 100 µM
- TGI (HCT-15 colon): > 100 µM
- TGI (LOX IMVI melanoma): > 100 µM
- TGI (RXF 393 renal): > 100 µM
- TGI (MDA-MB-231 breast): > 100 µM
- TGI (EKVX NSCLC): > 100 µM
- TGI (IGROV1 ovarian): > 100 µM
- TGI (A549 NSCLC): > 100 µM
- TGI (HCC-2998 colon): > 100 µM
- TGI (MOLT-4 leukemia): > 100 µM
- TGI (SW-620 colon): > 100 µM

SMILES: CCCCC/C=C1\CC(CO)(COC(=O)CC(C(C)C)C(C)C)OC1=O (centres undefined)
- TGI (OVCAR-5 ovarian): 27.7 µM
- TGI (DU-145 prostate): 44.9 µM
- TGI (K-562 leukemia): 44.2 µM
- TGI (U251 CNS): 31.6 µM
- TGI (OVCAR-8 ovarian): 32.1 µM
- TGI (SK-MEL-2 melanoma): 49 µM
- TGI (SR leukemia): > 100 µM
- TGI (PC-3 prostate): 27.5 µM
- TGI (MDA-N): 26.4 µM
- TGI (CCRF-CEM leukemia): > 100 µM
- TGI (HS 578T breast): 18.3 µM
- TGI (SK-OV-3 ovarian): 38.7 µM
- TGI (MCF7 breast): 39.3 µM
- TGI (SNB-75 CNS): 26.8 µM
- TGI (UACC-257 melanoma): 45.6 µM
- TGI (UO-31 renal): 28.6 µM
- TGI (SF-295 CNS): 20 µM
- TGI (KM12 colon): 28.3 µM
- TGI (NCI-H226 lung): 27.2 µM
- TGI (CAKI-1 renal): 24.3 µM
- TGI (T-47D breast): 55.1 µM
- TGI (HOP-62 NSCLC): 21.1 µM
- TGI (COLO 205 colon): 15.3 µM
- TGI (SN12C renal): 31.8 µM
- TGI (NCI-H23 lung): 36.4 µM
- TGI (MDA-MB-435): 22 µM
- TGI (SK-MEL-5 melanoma): 22.9 µM
- TGI (SF-268 CNS): 35.5 µM
- TGI (A498 renal): 33.7 µM
- TGI (HT29 colon): 40.1 µM
- TGI (NCI-H522 lung): 33.6 µM
- TGI (NCI/ADR-RES ovarian): 47 µM
- TGI (M14 melanoma): 32.4 µM
- TGI (SNB-19 CNS): 30.3 µM
- TGI (MALME-3M melanoma): 31.9 µM
- TGI (NCI-H460 lung): > 100 µM
- TGI (SK-MEL-28 melanoma): 36.2 µM
- TGI (BT-549 breast): 31 µM
- TGI (786-0 renal): 30.3 µM
- TGI (ACHN renal): 28.7 µM
- TGI (HOP-92 NSCLC): 20.9 µM
- TGI (OVCAR-4 ovarian): 46.5 µM
- TGI (TK-10 renal): 36.8 µM
- TGI (OVCAR-3 ovarian): 32.3 µM
- TGI (HCT-116 colon): 44.4 µM
- TGI (UACC-62 melanoma): 39 µM
- TGI (HCT-15 colon): 38.9 µM
- TGI (RXF 393 renal): 33.9 µM
- TGI (MDA-MB-231 breast): 40.2 µM
- TGI (EKVX NSCLC): 30.3 µM
- TGI (IGROV1 ovarian): 31.8 µM
- TGI (A549 NSCLC): 28.8 µM
- TGI (HCC-2998 colon): 32.6 µM
- TGI (MOLT-4 leukemia): 54.1 µM
- TGI (SW-620 colon): > 100 µM

SMILES: Clc1cccc(Cl)c1C(Nc1nncs1)Nc1nncs1
- TGI (OVCAR-5 ovarian): > 100 µM
- TGI (DU-145 prostate): > 100 µM
- TGI (SF-539 CNS): > 100 µM
- TGI (K-562 leukemia): > 100 µM
- TGI (U251 CNS): > 100 µM
- TGI (OVCAR-8 ovarian): > 100 µM
- TGI (SK-MEL-2 melanoma): > 100 µM
- TGI (SR leukemia): > 100 µM
- TGI (PC-3 prostate): > 100 µM
- TGI (MDA-N): 25.5 µM
- TGI (HS 578T breast): > 100 µM
- TGI (SK-OV-3 ovarian): > 100 µM
- TGI (MCF7 breast): > 100 µM
- TGI (SNB-75 CNS): > 100 µM
- TGI (UACC-257 melanoma): 71.1 µM
- TGI (UO-31 renal): > 100 µM
- TGI (SF-295 CNS): > 100 µM
- TGI (RPMI-8226 leukemia): > 100 µM
- TGI (KM12 colon): > 100 µM
- TGI (NCI-H226 lung): 99.7 µM
- TGI (CAKI-1 renal): > 100 µM
- TGI (T-47D breast): > 100 µM
- TGI (HOP-62 NSCLC): > 100 µM
- TGI (COLO 205 colon): > 100 µM
- TGI (SN12C renal): > 100 µM
- TGI (NCI-H23 lung): > 100 µM
- TGI (MDA-MB-435): 60.6 µM
- TGI (SK-MEL-5 melanoma): > 100 µM
- TGI (SF-268 CNS): > 100 µM
- TGI (A498 renal): > 100 µM
- TGI (HT29 colon): > 100 µM
- TGI (NCI-H522 lung): 70.9 µM
- TGI (NCI/ADR-RES ovarian): > 100 µM
- TGI (M14 melanoma): > 100 µM
- TGI (SNB-19 CNS): > 100 µM
- TGI (MALME-3M melanoma): > 100 µM
- TGI (NCI-H460 lung): 68.5 µM
- TGI (HL-60(TB) leukemia): 43.9 µM
- TGI (SK-MEL-28 melanoma): 54.5 µM
- TGI (BT-549 breast): > 100 µM
- TGI (786-0 renal): > 100 µM
- TGI (ACHN renal): > 100 µM
- TGI (HOP-92 NSCLC): > 100 µM
- TGI (OVCAR-4 ovarian): > 100 µM
- TGI (TK-10 renal): 84.1 µM
- TGI (OVCAR-3 ovarian): > 100 µM
- TGI (HCT-116 colon): > 100 µM
- TGI (UACC-62 melanoma): > 100 µM
- TGI (HCT-15 colon): > 100 µM
- TGI (LOX IMVI melanoma): > 100 µM
- TGI (RXF 393 renal): > 100 µM
- TGI (MDA-MB-231 breast): > 100 µM
- TGI (EKVX NSCLC): > 100 µM
- TGI (IGROV1 ovarian): > 100 µM
- TGI (A549 NSCLC): > 100 µM
- TGI (MOLT-4 leukemia): > 100 µM
- TGI (SW-620 colon): > 100 µM
